These are literature values, as cited in patent US20140005116A1, “KELOID TREATMENT” (ADE THERAPEUTICS INC., priority 2010, published 2014).

SMILES strings stand for the structures. Peptide text beside a SMILES is read from it.

The conditions of the series: heat sterilization and prolonged storage.

With `NCC(=O)N[C@@H](CCC(N)=O)C(=O)O` [Glycyl-glutamine] (H-Gly-Gln-OH), the “stability during sterilization and prolonged storage” value is “sufficiently stable”.
As for `C[C@H](N)C(=O)N[C@@H](CCC(N)=O)C(=O)O` [alanyl-glutamine, L-alanyl-L-glutamine] (H-Ala-Gln-OH), the “stability during sterilization and prolonged storage” value was “sufficiently stable”.
